Patent US20130317029A1 (PORTOLA PHARMACEUTICALS, INC., priority 2010, published 2013)

Target: T1, full length active recombinant SYK enzyme (Homo sapiens, UniProt P43405)
T1 construct: full length active recombinant SYK enzyme (Millipore, Calif.); purchased Millipore
Assay: Inhibition of Syk tyrosine phosphorylation activity (LANCE TR-FRET kinase assay)
Assay type: biochemical
Description: This example illustrates methods for evaluating the compounds of the invention, along with results obtained for such assays. The in vitro and in vivo human Syk activities of the inventive compounds can be determined by various procedures known in the art, such as a test for their ability to inhibit the activity of human plasma Syk. […] The IC50 value is the concentration (in nM) of the compound required to provide 50% inhibition of human Syk proteolytic activity.
Potency of candidate molecules for inhibiting Syk tyrosine phosphorylation activity is assessed by measuring the ability of a test compound to inhibit Syk-mediated tyrosine phosphorylation of a Syk-specific substrate.
SYK tyrosine phosphorylation activity is measured using the LANCE™ Technology developed by Perkin Elmer Life and Analytical Sciences (Boston, Mass.). LANCE™ refers to homogeneous time resolved fluorometry applications using techniques such as time-resolved fluorescence resonance energy transfer assay (TR-FRET) (see generally for procedures in Perkin Elmer Application Note—How to Optimize a Tyrosine Kinase Assay Using Time Resolved Fluorescence-Based LANCE Detection, wwww.perkinelmer.com/lifesciences). The assay principle involves detection of a phosphorylated substrate using energy transfer from a phosphospecific europium-labeled antibody to streptavidin-allophycocyanin as an acceptor.
To test the ability of candidate molecules to inhibit SYK tyrosine phosphorylation activity, molecules are reconstituted in 30% DMSO and serially diluted 1:3 with the final dilution containing DMSO in the absence of the candidate molecule. The final DMSO concentration in the assay is 3%. Kinase assays are performed as a two part reaction. The first reaction is a kinase reaction and which comprises of a candidate molecule, full length active recombinant SYK enzyme (Millipore, Calif.) and biotin-labeled SYK-specific substrate biotin-[…]-OH. The second reaction involves termination of the kinase reaction and the simultaneous addition of the detection reagents-europium-labeled anti-phosphotyrosine reagent (Eu-W1024-PY100, Perkin Elmer, Boston, Mass.) and Streptavidin-Allophycocyanin detection reagent (SA-APC, Prozyme, Calif.). The kinase reaction is performed in a black U-bottom 96-well microtitre plate. The final reaction volume is 50 μL and contains a final concentration of 1 nM active SYK enzyme, 550 nM SYK-substrate, and 100 μM ATP diluted in a buffer containing 50 mM Tris pH 7.5, 5 mM MgCl2, and 1 mM DTT. The reaction is allowed to proceed for 1 hour at room temperature. The quench buffer contains 100 mM Tris pH 7.5, 300 mM NaCl2, 20 mM EDTA, 0.02% Brij35, and 0.5% BSA. The detection reagents are added to the reaction mixture at the following dilutions-1:500 for Eu-W1024-PY100 and 1:250 for SA-APC. The kinase reaction is terminated by the addition of 50 μL quench buffer containing the detection reagents. The detection is allowed to proceed for 1 hr at room temperature. Detection of the phosphorlated substrate in the absence and presence of inhibitors is measured in the TR-FRET instrument, Analyst HT (Molecular Probes, Sunnyvale, Calif.) and the condition for measurements are set up using CriterionHost Release 2.0 (Molecular Probes, Sunnyvale, Calif.). The settings used are a follows: excitation 360 nm, emission 665-7.5 nm, beam splitter 350 nm 50/50, flash 100 pulses, delay 60 us, integration 400 us, z-height 2 mm. Inhibition of SYK-tyrosine kinase activity is calculated as the maximum response observed in the presence of inhibitor, compared to that in the absence of inhibitor. IC50s were derived by non-linear regression analysis.

`CC(C)C[C@@H](Nc1nc(Nc2ccc3cn[nH]c3c2)c(C(N)=O)c(=O)[nH]1)C(N)=O` [Example 35, (R)-4-(1H-indazol-6-ylamino)-2-(1-amino-4-methyl-1-oxopentan-2-ylamino)-6-oxo-1,6-dihydropyrimidine-5-carboxamide] and `CC(C)C[C@@H](Nc1nc(Nc2ccc3[nH]ncc3c2)c(C(N)=O)c(=O)[nH]1)C(N)=O` [Example 25, (R)-4-(1H-indazol-5-ylamino)-2-(1-amino-4-methyl-1-oxopentan-2-ylamino)-6-oxo-1,6-dihydropyrimidine-5-carboxamide] cannot be ordered by IC50: less than 0.001 µM for the first, less than 0.001 µM for the second.

First: Cc1cc(C)cc(Nc2nc(NC[C@H](C)N)[nH]c(=O)c2C(N)=O)c1 [Example 54, (S)-2-(2-aminopropylamino)-4-(3,5-dimethylphenylamino)-6-oxo-1,6-dihydropyrimidine-5-carboxamide]
Second: Cc1cc(C)cc(Nc2nc(Nc3ccc(S(N)(=O)=O)cc3)[nH]c(=O)c2C(N)=O)c1 [Example 61, 4-(4-(3,5-dimethylphenylamino)-5-carboxamide-6-oxo-1,6-dihydropyrimidin-2-ylamino)benzenesulfonamide]
The IC50 of the first is higher: greater than 1 µM for the first, 0.1 to 1 µM for the second. The second is the more potent here.

`Cc1cccc(Nc2nc(N[C@H](CC(C)C)C(N)=O)[nH]c(=O)c2C(N)=O)c1` [Example 9, (R)-2-(1-amino-4-methyl-1-oxopentan-2-ylamino)-6-oxo-4-(m-tolylamino)-1,6-dihydropyrimidine-5-carboxamide] and `Cc1cccc(Nc2nc(N[C@@H](C(N)=O)C(C)C)[nH]c(=O)c2C(N)=O)c1` [Example 10, (R)-2-(1-amino-3-methyl-1-oxobutan-2-ylamino)-6-oxo-4-(m-tolylamino)-1,6-dihydropyrimidine-5-carboxamide] fall in the same range of IC50: 0.001 to 0.01 µM for the first, 0.001 to 0.01 µM for the second.

First: CC[C@@H](Nc1nc(Nc2ccc3c(c2)OCO3)c(C(N)=O)c(=O)[nH]1)C(N)=O [Example 76, (R)-2-(1-amino-1-oxobutan-2-ylamino)-4-(benzo[d][1,3]dioxol-5-ylamino)-6-oxo-1,6-dihydropyrimidine-5-carboxamide]
Second: CC[C@@H](Nc1nc(Nc2ccc3cn[nH]c3c2)c(C(N)=O)c(=O)[nH]1)C(N)=O [Example 36]
The IC50 of the first is higher: 0.001 to 0.01 µM for the first, less than 0.001 µM for the second. The second is the more potent here.

`CC[C@@H](Nc1nc(Nc2ccc(-n3ccnc3)cc2)c(C(N)=O)c(=O)[nH]1)C(N)=O` [Example 116, (R)-2-(1-amino-1-oxobutan-2-ylamino)-4-(4-(1H-imidazol-1-yl)phenylamino)-6-oxo-1,6-dihydropyrimidine-5-carboxamide] and `CC(C)C[C@@H](Nc1nc(Nc2ccc(-n3cccn3)cc2)c(C(N)=O)c(=O)[nH]1)C(N)=O` [Example 18] fall in the same range of IC50: 0.001 to 0.01 µM for the first, 0.001 to 0.01 µM for the second.

First: CC(C)C[C@@H](Nc1nc(Nc2ccc3ncccc3c2)c(C(N)=O)c(=O)[nH]1)C(N)=O [Example 13, (R)-2-(1-amino-4-methyl-1-oxopentan-2-ylamino)-6-oxo-4-(quinolin-6-ylamino)-1,6-dihydropyrimidine-5-carboxamide]
Second: CC(C)C[C@@H](Nc1nc(Nc2ccc(-c3ccccn3)cc2)c(C(N)=O)c(=O)[nH]1)C(N)=O [Example 113, (R)-2-(1-amino-4-methyl-1-oxopentan-2-ylamino)-6-oxo-4-(4-(pyridin-2-yl)phenylamino)-1,6-dihydropyrimidine-5-carboxamide]
The IC50 of the first is lower: less than 0.001 µM for the first, 0.001 to 0.01 µM for the second.

`CC(C)C[C@@H](Nc1nc(Nc2cccc(OC(F)F)c2)c(C(N)=O)c(=O)[nH]1)C(N)=O` [Example 87, (R)-2-(1-amino-4-methyl-1-oxopentan-2-ylamino)-4-(3-(difluoromethoxy)phenylamino)-6-oxo-1,6-dihydropyrimidine-5-carboxamide] and `CC(C)C[C@@H](Nc1nc(Nc2cccc(-n3cccn3)c2)c(C(N)=O)c(=O)[nH]1)C(N)=O` [Example 32] fall in the same range of IC50: 0.001 to 0.01 µM for the first, 0.001 to 0.01 µM for the second.

First: NC(=O)c1c(Nc2cccc(-c3ncccn3)c2)nc(N[C@@H]2CCCC[C@@H]2N)[nH]c1=O [Example 38]
Second: CC(C)[C@@H](Nc1nc(Nc2cccc(-c3ncccn3)c2)c(C(N)=O)c(=O)[nH]1)C(N)=O [Example 28, (R)-2-(1-amino-3-methyl-1-oxobutan-2-ylamino)-6-oxo-4-(3-(pyrimidin-2-yl)phenylamino)-1,6-dihydropyrimidine-5-carboxamide]
The IC50 of the first is lower: 0.001 to 0.01 µM for the first, 0.01 to 0.1 µM for the second. The first is the more potent here.

First: CC(C)C[C@@H](Nc1nc(Nc2cccc(-c3ncccn3)c2)c(C(N)=O)c(=O)[nH]1)C(N)=O [Example 27, (R)-2-(1-amino-4-methyl-1-oxopentan-2-ylamino)-6-oxo-4-(3-(pyrimidin-2-yl)phenylamino)-1,6-dihydropyrimidine-5-carboxamide]
Second: CNC(=O)[C@@H](CC(C)C)Nc1nc(Nc2cccc(-n3cccn3)c2)c(C(N)=O)c(=O)[nH]1 [Example 104, (R)-4-(3-(1H-pyrazol-1-yl)phenylamino)-2-(4-methyl-1-(methylamino)-1-oxopentan-2-ylamino)-6-oxo-1,6-dihydropyrimidine-5-carboxamide]
The IC50 of the first is lower: 0.001 to 0.01 µM for the first, greater than 1 µM for the second. The first is the more potent here.

`CC(=O)N1CCN(c2ccc(Nc3nc(NC4CCC4)c(C(N)=O)c(=O)[nH]3)cc2)CC1` [Example 47, 2-(4-(4-acetylpiperazin-1-yl)phenylamino)-4-(cyclobutylamino)-6-oxo-1,6-dihydropyrimidine-5-carboxamide] and `NC(=O)c1c(NC2CCC2)nc(Nc2ccc(S(N)(=O)=O)cc2)[nH]c1=O` [Example 45, 4-(cyclobutylamino)-6-oxo-2-(4-sulfamoylphenylamino)-1,6-dihydropyrimidine-5-carboxamide] cannot be ordered by IC50: greater than 1 µM for the first, greater than 1 µM for the second.

`COc1nc(N[C@H](CC(C)C)C(N)=O)nc(Nc2cc(C)cc(C)c2)c1C(N)=O` [Example 67, (R)-2-(1-amino-4-methyl-1-oxopentan-2-ylamino)-4-(3,5-dimethylphenylamino)-6-methoxypyrimidine-5-carboxamide] and `COc1nc(N[C@@H](C(N)=O)c2ccccc2)nc(Nc2cccc(C)c2)c1C(N)=O` [Example 71, (R)-4-(m-toluidino)-2-(2-amino-2-oxo-1-phenylethylamino)-6-methoxypyrimidine-5-carboxamide] fall in the same range of IC50: 0.1 to 1 µM for the first, 0.1 to 1 µM for the second.

First: NC(=O)c1c(NC2CC2)nc(Nc2ccc(S(N)(=O)=O)cc2)[nH]c1=O [Example 44, 4-(cyclopropylamino)-6-oxo-2-(4-sulfamoylphenylamino)-1,6-dihydropyrimidine-5-carboxamide]
Second: COCCOc1ccc(Nc2nc(N[C@H](CC(C)C)C(N)=O)[nH]c(=O)c2C(N)=O)cc1 [Example 93, (R)-2-(1-amino-4-methyl-1-oxopentan-2-ylamino)-4-(4-(2-methoxyethoxy)phenylamino)-6-oxo-1,6-dihydropyrimidine-5-carboxamide]
The IC50 of the first is higher: greater than 1 µM for the first, 0.001 to 0.01 µM for the second. The second is the more potent here.

First: CC(=O)N1CCN(c2ccc(Nc3nc(O)c(C(N)=O)c(Nc4cccc(C)c4)n3)cc2)CC1 [Example 64, 4-(m-toluidino)-2-(4-(4-acetylpiperazin-1-yl)phenylamino)-6-hydroxypyrimidine-5-carboxamide]
Second: CNC(=O)[C@@H](CC(C)C)Nc1nc(Nc2ccc3ncsc3c2)c(C(N)=O)c(=O)[nH]1 [Example 103, (R)-4-(benzo[d]thiazol-6-ylamino)-2-(4-methyl-1-(methylamino)-1-oxopentan-2-ylamino)-6-oxo-1,6-dihydropyrimidine-5-carboxamide]
The IC50 of the first is higher: greater than 1 µM for the first, 0.01 to 0.1 µM for the second.

Compared with `CC(C)C[C@@H](Nc1nc(Nc2ccn(C)n2)c(C(N)=O)c(=O)[nH]1)C(N)=O` [Example 117, (R)-2-(1-amino-4-methyl-1-oxopentan-2-ylamino)-4-(1-methyl-1H-pyrazol-3-ylamino)-6-oxo-1,6-dihydropyrimidine-5-carboxamide], `CC[C@@H](Nc1nc(Nc2ccc3ncsc3c2)c(C(N)=O)c(=O)[nH]1)C(N)=O` [Example 31] is lower in IC50: 0.1 to 1 µM for the first, less than 0.001 µM for the second. The second is the more potent here.

Compound `CC(C)[C@@H](Nc1nc(Nc2ccc3[nH]ncc3c2)c(C(N)=O)c(=O)[nH]1)C(N)=O` [Example 26, (R)-4-(1H-indazol-5-ylamino)-2-(1-amino-3-methyl-1-oxobutan-2-ylamino)-6-oxo-1,6-dihydropyrimidine-5-carboxamide] has an IC50 of less than 0.001 µM.
